Test results: patent publication US9790217B2, “Pyridinyloxy- and phenyloxy-pyrazolyl compounds” (Hoffmann-La Roche Inc., priority 2014, dated 2017)

Key:
human CYP11B2 = human CYP11B2 (Homo sapiens (Human), UniProt P19099); assay: G-402 cellular enzyme assay, human CYP11B2 (aldosterone release, HTRF); assay type: cell-based; settings: G-402 cells expressing human CYP11B2; 1 μM Deoxycorticosterone
Excerpt: (§1) Herein we identified the use of the G-402 cell line as a host cell to ectopically express (transiently or stably) enzymes of the CYP11 family. Specifically we developed stable G-402 cells expressing ectopically human CYP11B1, human CYP11B2, human CYP11A1, cynmolgus CYP11B1 or cynomolgus CYP11B2 enzyme activity. Importantly the identified cell line G-402 expresses co-factors (adrenodoxin and adrenodoxin reductase) important for the activity of the CYP11 family and no relevant enzyme activity of the CYP11 family (in comparison to H295R cells) was detected in these cells. Therefore the G-402 cell line is uniquely suited as a host cell for the ectopic expression of enzymes from the CYP11 family.
(§2) G-402 cells can be obtained from ATCC (CRL-1440) and were originally derived from a renal leiomyoblastoma.
(§3) The expression plasmids contains the ORF for either human/cyno CYP11B1 or CYP11B2 under the control of a suitable promoter (CMV-promoter) and a suitable resistance marker (neomycin). Using standard techniques the expression plasmid is transfected into G-402 cells and these cells are then selected for expressing the given resistance markers. Individual cell-clones are then selected and assessed for displaying the desired enzymatic activity using 11-Deoxycorticosterone (Cyp11B2) or 11-Deoxycortisol (Cyp11B1) as a substrate.
(§4) G-402 cells expressing CYP11 constructs were established as described above and maintained in McCoy's 5a Medium Modified, ATCC Catalog No. 30-2007 containing 10% FCS and 400 μg/ml G418 (Geneticin) at 37° C. under an atmosphere of 5% CO2/95% air. Cellular enzyme assays were performed in DMEM/F12 medium containing 2.5% charcoal treated FCS and appropriate concentration of substrate (0.3-10 uM 11-Deoxycorticosterone, 11-Deoxycortisol or Corticosterone). For assaying enzymatic activity, cells were plated onto 96 well plates and incubated for 16 h. An aliquot of the supernatant is then transferred and analyzed for the concentration of the expected product (Aldosterone for CYP11B2; Cortisol for CYP11B1). The concentrations of these steroids can be determined using HTRF assays from CisBio analyzing either Aldosterone or Cortisol.
(§5) Inhibition of the release of produced steroids can be used as a measure of the respective enzyme inhibition by test compounds added during the cellular enzyme assay. The dose dependent inhibition of enzymatic activity by a compound is calculated by means of plotting added inhibitor concentrations (x-axes) vs. measured steroid/product level (y-axes). The inhibition is then calculated by fitting the following 4-parameter sigmoidal function (Morgan-Mercer-Flodin (MMF) model) to the raw data points using the least squares method:
(§6) [formula] wherein, A is the maximum y value, B is the EC50 factor determined using XLFit, C is the minimum y value and D is the slope value.
(§7) EC50 values for compounds claimed herein were tested with the G402-based assay system described. Cyp11B2 enzyme activity was tested in presence of 1 μM Deoxycorticosterone and variable amounts of inhibitors; Cyp11B1 enzyme activity was tested in presence of 1 μM Deoxycortisol and variable amounts of inhibitors.

human CYP11B1 = human CYP11B1 (Homo sapiens (Human), UniProt P15538); assay: G-402 cellular enzyme assay, human CYP11B1 (cortisol release, HTRF); assay type: cell-based; settings: G-402 cells expressing human CYP11B1; 1 μM Deoxycortisol
human CYP11B1, sequence (P15538 25-503): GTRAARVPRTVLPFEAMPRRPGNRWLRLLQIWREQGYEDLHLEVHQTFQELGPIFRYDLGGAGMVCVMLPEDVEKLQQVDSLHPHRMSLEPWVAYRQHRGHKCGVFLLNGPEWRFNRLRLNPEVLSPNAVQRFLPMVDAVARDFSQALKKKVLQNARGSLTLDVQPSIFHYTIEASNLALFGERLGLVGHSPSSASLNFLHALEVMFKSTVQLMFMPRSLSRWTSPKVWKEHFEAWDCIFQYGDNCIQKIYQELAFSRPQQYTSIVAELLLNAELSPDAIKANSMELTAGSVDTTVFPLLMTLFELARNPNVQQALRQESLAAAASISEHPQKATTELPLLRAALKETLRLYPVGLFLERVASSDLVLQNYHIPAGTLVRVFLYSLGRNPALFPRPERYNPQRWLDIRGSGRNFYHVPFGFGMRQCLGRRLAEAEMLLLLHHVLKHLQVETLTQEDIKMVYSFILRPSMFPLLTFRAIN
Excerpt: as §1, §2, §3, §4, §5, §6, §7

human CYP11B2, sequence (P19099 25-503): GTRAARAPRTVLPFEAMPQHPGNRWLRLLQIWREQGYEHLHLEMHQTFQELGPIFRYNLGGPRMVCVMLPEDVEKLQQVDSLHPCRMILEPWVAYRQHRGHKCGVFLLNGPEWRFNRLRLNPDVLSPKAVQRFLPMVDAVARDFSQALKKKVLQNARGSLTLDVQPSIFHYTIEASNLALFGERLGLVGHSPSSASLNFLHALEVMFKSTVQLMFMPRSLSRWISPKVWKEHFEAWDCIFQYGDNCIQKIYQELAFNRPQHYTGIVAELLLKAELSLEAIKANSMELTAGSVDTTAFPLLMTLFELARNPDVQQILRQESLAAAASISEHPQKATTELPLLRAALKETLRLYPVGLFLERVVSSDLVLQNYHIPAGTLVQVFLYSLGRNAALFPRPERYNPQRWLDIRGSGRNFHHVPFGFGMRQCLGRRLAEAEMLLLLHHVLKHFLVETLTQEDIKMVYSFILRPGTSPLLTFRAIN

Compound | EC50 (human CYP11B2) | EC50 (human CYP11B1)
N#Cc1ccc(Oc2cn[nH]c2-c2cccc(Cl)c2F)cc1 [Example 30, 4-[[5-(3-Chloro-2-fluorophenyl)-1H-pyrazol-4-yl]oxy]benzonitrile] | 8 nM | 191 nM
Fc1c(Cl)cccc1-c1[nH]ncc1Oc1ccc(Cl)cc1 [Example 31, 5-(3-Chloro-2-fluorophenyl)-4-(4-chlorophenoxy)-1H-pyrazole] | 191 nM | 1820 nM
N#Cc1ccc(Oc2cn[nH]c2-c2cccc(Cl)c2)cc1 [Example 32, 4-[[5-(3-Chlorophenyl)-1H-pyrazol-4-yl]oxy]benzonitrile] | 45.8 nM | 542 nM
COC(=O)c1cccc(-c2[nH]ncc2Oc2ccc(C#N)cc2)c1 [Example 33, Methyl 3-[4-(4-cyanophenoxy)-1H-pyrazol-3-yl]benzoate] | 17.5 nM | 31.3 nM
Fc1cccc(-c2[nH]ncc2Oc2ccc(Cl)cc2)c1Cl [Example 34, 5-(2-Chloro-3-fluorophenyl)-4-(4-chlorophenoxy)-1H-pyrazole] | 39.2 nM | 262 nM
N#Cc1ccc(Oc2cn[nH]c2-c2cccc(F)c2Cl)cc1 [Example 35, 4-[[5-(2-Chloro-3-fluorophenyl)-1H-pyrazol-4-yl]oxy]benzonitrile] | 1.5 nM | 68.6 nM
N#Cc1ccc(Oc2cn[nH]c2-c2cccc(OCc3ccccc3)c2)cc1 [Example 36, 4-[[5-(3-Phenylmethoxyphenyl)-1H-pyrazol-4-yl]oxy]benzonitrile] | 16.8 nM | 52.9 nM
N#Cc1ccc(Oc2cn[nH]c2-c2ccnc(Cl)c2)cc1 [Example 37, 4-[[5-(2-Chloropyridin-4-yl)-1H-pyrazol-4-yl]oxy]benzonitrile] | 317 nM | 10500 nM
COC(=O)c1cccc(-c2[nH]ncc2Oc2ccc(C#N)cc2F)c1 [Example 38, Methyl 3-[4-(4-cyano-2-fluorophenoxy)-1H-pyrazol-3-yl]benzoate] | 31.9 nM | 321 nM
CCOC(=O)c1ccccc1-c1[nH]ncc1Oc1ccc(C#N)cc1 [Example 39, Ethyl 2-[4-(4-cyanophenoxy)-1H-pyrazol-3-yl]benzoate] | 34.2 nM | 1160 nM
N#Cc1ccc(Oc2cn[nH]c2-c2ccccc2C(=O)O)cc1 [Example 40, 2-[4-(4-Cyanophenoxy)-1H-pyrazol-3-yl]benzoic acid] | 1500 nM | > 30000 nM
N#Cc1ccc(Oc2cn[nH]c2-c2ccccc2OCc2ccccc2)cc1 [Example 41, 4-[[5-(2-Phenylmethoxyphenyl)-1H-pyrazol-4-yl]oxy]benzonitrile] | 0.1 nM | 0.5 nM
CS(=O)(=O)c1ccc(-c2[nH]ncc2Oc2ccc(Cl)cc2)c(Cl)c1 [Example 42, 5-(2-Chloro-4-methylsulfonylphenyl)-4-(4-chlorophenoxy)-1H-pyrazole] | 29.8 nM | 345 nM
CS(=O)(=O)c1ccc(-c2[nH]ncc2Oc2ccc(C#N)cc2)c(Cl)c1 [Example 43, 4-[[5-(2-Chloro-4-methylsulfonylphenyl)-1H-pyrazol-4-yl]oxy]benzonitrile] | 41.6 nM | 558 nM
CC(=O)N1CCN(C(=O)c2cccc(-c3[nH]ncc3Oc3ccc(C#N)cc3)c2)CC1 [Example 44, 4-[[3-[3-(4-Acetylpiperazine-1-carbonyl)phenyl]-1H-pyrazol-4-yl]oxy]benzonitrile] | 313 nM | > 30000 nM
N#Cc1ccc(Oc2cn[nH]c2-c2cccc(C(=O)N3CCOCC3)c2)cc1 [Example 45, 4-[[3-[3-(Morpholine-4-carbonyl)phenyl]-1H-pyrazol-4-yl]oxy]benzonitrile] | 397 nM | 2400 nM
CS(=O)(=O)N1CCN(C(=O)c2cccc(-c3[nH]ncc3Oc3ccc(C#N)cc3)c2)CC1 [Example 46, 4-[[3-[3-(4-Methylsulfonylpiperazine-1-carbonyl)phenyl]-1H-pyrazol-4-yl]oxy]benzonitrile] | 1050 nM | 10700 nM

Compound | EC50 (human CYP11B2) | EC50 (human CYP11B1)
N#Cc1ccc(Oc2cn[nH]c2-c2cccc(C(=O)N3CC(CO)C3)c2)cc1 [Example 47, 4-[[3-[3-[3-(Hydroxymethyl)azetidine-1-carbonyl]phenyl]-1H-pyrazol-4-yl]oxy]benzonitrile] | 281 nM | 159 nM
N#Cc1ccc(Oc2cn[nH]c2-c2cccc(O)c2)cc1 [Example 48, 4-[[3-(3-Hydroxyphenyl)-1H-pyrazol-4-yl]oxy]benzonitrile] | 20.4 nM | 83.4 nM
N#Cc1ccc(Oc2cn[nH]c2-c2cccc(CO)c2)cc1 [Example 49, 4-[[3-[3-(Hydroxymethyl)phenyl]-1H-pyrazol-4-yl]oxy]benzonitrile] | 13.2 nM | 85 nM
N#Cc1ccc(Oc2cn[nH]c2-c2cccc(OCc3ccccn3)c2)cc1 [Example 50, 4-[[3-[3-(Pyridin-2-ylmethoxy)phenyl]-1H-pyrazol-4-yl]oxy]benzonitrile] | 10.4 nM | 51.6 nM
N#Cc1ccc(Oc2cn[nH]c2-c2cccc(OCc3cccnc3)c2)cc1 [Example 51, 4-[[3-[3-(Pyridin-3-ylmethoxy)phenyl]-1H-pyrazol-4-yl]oxy]benzonitrile] | 9.5 nM | 51.3 nM
Cc1cc(COc2cccc(-c3[nH]ncc3Oc3ccc(C#N)cc3)c2)on1 [Example 52, 4-[[3-[3-[(3-Methyl-1,2-oxazol-5-yl)methoxy]phenyl]-1H-pyrazol-4-yl]oxy]benzonitrile] | 14.8 nM | 32.3 nM
Cn1nncc1COc1cccc(-c2[nH]ncc2Oc2ccc(C#N)cc2)c1 [Example 53, 4-[[3-[3-[(3-Methyltriazol-4-yl)methoxy]phenyl]-1H-pyrazol-4-yl]oxy]benzonitrile] | 23.8 nM | 198 nM
N#Cc1ccc(Oc2cn[nH]c2-c2cccc(OCc3ccncc3)c2)cc1 [Example 54, 4-[[3-[3-(Pyridin-4-ylmethoxy)phenyl]-1H-pyrazol-4-yl]oxy]benzonitrile] | 3.5 nM | 46.5 nM
N#Cc1ccc(Oc2cn[nH]c2-c2cccc(OCc3ccnc(Cl)c3)c2)cc1 [Example 55, 4-[[3-[3-[(2-Chloropyridin-4-yl)methoxy]phenyl]-1H-pyrazol-4-yl]oxy]benzonitrile] | 33.1 nM | 288 nM
Cn1cc(COc2cccc(-c3[nH]ncc3Oc3ccc(C#N)cc3)c2)cn1 [Example 56, 4-[[3-[3-[(1-Methylpyrazol-4-yl)methoxy]phenyl]-1H-pyrazol-4-yl]oxy]benzonitrile] | 9.5 nM | 93.6 nM
CCCCOc1cccc(-c2[nH]ncc2Oc2ccc(C#N)cc2)c1 [Example 59, 4-[[5-(3-Butoxyphenyl)-1H-pyrazol-4-yl]oxy]benzonitrile] | 10.9 nM | 102 nM
COc1ccccc1CCc1[nH]ncc1Oc1ccc(C#N)cc1 [Example 60, 4-[[3-[2-(2-Methoxyphenyl)ethyl]-1H-pyrazol-4-yl]oxy]benzonitrile] | 54 nM | 1000 nM
Cc1ncc(-c2[nH]ncc2Oc2ccc(C#N)cc2)s1 [Example 66, 4-[[3-(2-Methyl-1,3-thiazol-5-yl)-1H-pyrazol-4-yl]oxy]benzonitrile] | 68.5 nM | 2060 nM
Cn1cc(-c2[nH]ncc2Oc2ccc(C#N)cc2)cn1 [Example 67, 4-[[3-(1-Methylpyrazol-4-yl)-1H-pyrazol-4-yl]oxy]benzonitrile] | 251 nM | 3270 nM
N#Cc1ccc(Oc2cn[nH]c2-c2cnn(Cc3ccccc3)c2)cc1 [Example 68, 4-[[5-(1-Benzylpyrazol-4-yl)-1H-pyrazol-4-yl]oxy]benzonitrile] | 439 nM | 2400 nM
N#Cc1ccc(Oc2cn[nH]c2-c2cccc(COc3cccc(F)n3)c2)cc1 [Example 69, 4-[[3-[3-[(6-Fluoropyridin-2-yl)oxymethyl]phenyl]-1H-pyrazol-4-yl]oxy]benzonitrile] | 16.9 nM | 47.7 nM
N#Cc1ccc(Oc2cn[nH]c2-c2cccc(COc3cccnc3)c2)cc1 [Example 70, 4-[[3-[3-(Pyridin-3-yloxymethyl)phenyl]-1H-pyrazol-4-yl]oxy]benzonitrile] | 10.6 nM | 38.3 nM
